Data from patent US11180462B2, “Microbiocidal oxadiazole derivatives” (SYNGENTA PARTICIPATIONS AG, priority 2015, dated 2021).

The compounds below were run on Glomerella lagenarium (Colletotrichum lagenarium) (assay: Fungicidal activity against Glomerella lagenarium (Colletotrichum lagenarium) liquid culture / cucumber / preventative (anthracnose)). Settings: Colletotrichum orbiculare; 20 ppm in the applied formulation; liquid culture (PDB), growth inhibition measured photometrically after 3 to 4 days; compared to untreated control; read-out: disease control.
Format: cell-based
Description: Mycelia fragments or conidia suspensions of a fungus prepared either freshly from liquid cultures of the fungus or from cryogenic storage, are directly mixed into nutrient broth. DMSO solutions of the test compound (max. 10 mg/ml) are diluted with 0.025% Tween20 by a factor of 50 and 10 μl of this solution is pipetted into a microtiter plate (96-well format). The nutrient broth containing the fungal spores/mycelia fragments is then added to give an end concentration of the tested compound. The test plates are incubated in the dark at 24° C. and 96% relative humidity. The inhibition of fungal growth is determined photometrically after 2 to 7 days, depending on the pathosystem, and percent antifungal activity relative to the untreated check is calculated.
Fungicidal activity against Glomerella lagenarium (Colletotrichum lagenarium) liquid culture/cucumber/Preventative (Anthracnose)
Conidia of the fungus from cryogenic storage are directly mixed into nutrient broth (PDB—potato dextrose broth). After placing a (DMSO) solution of test compound into a microtiter plate (96-well format), the nutrient broth containing the fungal spores is added.
The following compounds at 20 ppm in the applied formulation give at least 80% disease control in this test when compared to untreated control under the same conditions, which show extensive disease development.
C#CCN(Cc1ccc(-c2noc(C(F)(F)F)n2)cc1)C(=O)C1(C)CC1(Cl)Cl (centres unmarked) [Compound 1.174, 2,2-dichloro-1-methyl-N-prop-2-ynyl-N-[[4-[5-(trifluoromethyl)-1,2,4-oxadiazol-3-yl]phenyl]methyl]-cyclopropane-carboxamide] gave an inhibition of growth at 20 ppm of no less than 80%. For CON(C(=O)CC1CC1)C(C)c1ccc(-c2noc(C(F)(F)F)n2)cc1 (centres unmarked) [Compound 1.256, 2-cyclopropyl-N-methoxy-N-[1-[4-[5-(trifluoromethyl)-1,2,4-oxadiazol-3-yl]phenyl]ethyl]-acetamide], the inhibition of growth at 20 ppm was no less than 80%. In the case of COCC(=O)N(Cc1ccc(-c2noc(C(F)(F)F)n2)cc1)OCC=C(Cl)Cl [Compound 1.535, N-(3,3-dichloroallyloxy)-2-methoxy-N-[[4-[5-(trifluoromethyl)-1,2,4-oxadiazol-3-yl]phenyl]methyl]-acetamide], the inhibition of growth at 20 ppm is reported as no less than 80%. Compound CON(Cc1ccc(-c2noc(C(F)(F)F)n2)cc1)C(=O)Cc1ccc(C(F)(F)F)cc1 [Compound 1.68, N-methoxy-N-[[4-[5-(trifluoromethyl)-1,2,4-oxadiazol-3-yl]phenyl]methyl]-2-[4-(trifluoromethyl)-phenyl]acetamide] has an inhibition of growth at 20 ppm of no less than 80%. For CC=C(C)C(=O)N(OC)C(C)c1ccc(-c2noc(C(F)(F)F)n2)cc1 (centres unmarked) [Compound 1.255, N-methoxy-2-methyl-N-[1-[4-[5-(trifluoromethyl)-1,2,4-oxadiazol-3-yl]phenyl]ethyl]but-2-enamide], the inhibition of growth at 20 ppm was no less than 80%. With O=C(C1CC1)N(Cc1ccc(-c2noc(C(F)(F)F)n2)cc1)OCc1ccc(Cl)cc1 [Compound 1.561, N-[(4-chlorophenyl)-methoxy]-N-[[4-[5-(trifluoromethyl)-1,2,4-oxadiazol-3-yl]phenyl]methyl]-cyclopropane-carboxamide] the inhibition of growth at 20 ppm was no less than 80%. Work on CCCC(=O)N(Cc1ccc(-c2noc(C(F)(F)F)n2)cc1)OCC=C(Cl)Cl [Compound 1.541, N-(3,3-dichloroallyloxy)-N-[[4-[5-(trifluoromethyl)-1,2,4-oxadiazol-3-yl]phenyl]methyl]-butanamide] yielded an inhibition of growth at 20 ppm of no less than 80%. CCC(=O)N(Cc1ccc(-c2noc(C(F)(F)F)n2)cc1)OCC=C(Cl)Cl [Compound 1.534, N-(3,3-dichloroallyloxy)-N-[[4-[5-(trifluoromethyl)-1,2,4-oxadiazol-3-yl]phenyl]methyl]-propanamide] was tested, and the inhibition of growth at 20 ppm was no less than 80%. CON(C(=O)C1CCC1)C(C)c1ccc(-c2noc(C(F)(F)F)n2)cc1 (centres unmarked) [Compound 1.262, N-methoxy-N-[1-[4-[5-(trifluoromethyl)-1,2,4-oxadiazol-3-yl]pheny1]ethyl]-cyclobutane-carboxamide] was tested, and the inhibition of growth at 20 ppm was no less than 80%. CCCON(Cc1ccc(-c2noc(C(F)(F)F)n2)cc1)C(=O)C1CCCC1 [Compound 1.290, N-propoxy-N-[[4-[5-(trifluoromethyl)-1,2,4-oxadiazol-3-yl]phenyl]methyl]-cyclopentane-carboxamide] gave an inhibition of growth at 20 ppm of no less than 80%. In the case of CCCON(Cc1ccc(-c2noc(C(F)(F)F)n2)cc1)C(=O)C=CC(C)=O [Compound 1.310, 4-oxo-N-propoxy-N-[[4-[5-(trifluoromethyl)-1,2,4-oxadiazol-3-yl]phenyl]methyl]-pent-2-enamide], the inhibition of growth at 20 ppm is reported as no less than 80%. For CON(C(=O)CC(F)(F)F)C(C)c1ccc(-c2noc(C(F)(F)F)n2)cc1 (centres unmarked) [Compound 1.277, 3,3,3-trifluoro-N-methoxy-N-[1-[4-[5-(trifluoromethyl)-1,2,4-oxadiazol-3-yl]phenyl]ethyl]-propanamide], the inhibition of growth at 20 ppm was no less than 80%. For CCC(C)N(Cc1ccc(-c2noc(C(F)(F)F)n2)cc1)C(=O)C1(F)CC1 (centres unmarked) [Compound 1.393, 1-fluoro-N-sec-butyl-N-[[4-[5-(trifluoromethyl)-1,2,4-oxadiazol-3-yl]phenyl]methyl]-cyclopropane-carboxamide], the inhibition of growth at 20 ppm was no less than 80%. CON(C(=O)C1CCCC1)C(C)c1ccc(-c2noc(C(F)(F)F)n2)cc1 (centres unmarked) [Compound 1.257] was tested, and the inhibition of growth at 20 ppm was no less than 80%. CCC1(C(=O)N(Cc2ccc(-c3noc(C(F)(F)F)n3)cc2)OC)C(C)C1(Cl)Cl (centres unmarked) [Compound 1.61, 2,2-dichloro-1-ethyl-N-methoxy-3-methyl-N-[[4-[5-(trifluoromethyl)-1,2,4-oxadiazol-3-yl]phenyl]methyl]-cyclopropane-carboxamide] was tested, and the inhibition of growth at 20 ppm was no less than 80%. CON(C(=O)C1(F)CC1)C(C)c1ccc(-c2noc(C(F)(F)F)n2)cc1 (centres unmarked) [Compound 1.271, 1-fluoro-N-methoxy-N-[1-[4-[5-(trifluoromethyl)-1,2,4-oxadiazol-3-yl]phenyl]ethyl]-cyclopropane-carboxamide] showed an inhibition of growth at 20 ppm of no less than 80%. O=C(C1CCCO1)N(Cc1ccc(-c2noc(C(F)(F)F)n2)cc1)OCc1ccc(Cl)cc1 (centres unmarked) [Compound 1.557, N-[(4-chlorophenyl)-methoxy]-N-[[4-[5-(trifluoromethyl)-1,2,4-oxadiazol-3-yl]phenyl]methyl]-tetrahydrofuran-2-carboxamide] gave an inhibition of growth at 20 ppm of no less than 80%. Work on O=C(CCC(F)(F)F)N(Cc1ccc(-c2noc(C(F)(F)F)n2)cc1)CC1CC1 [Compound 1.213, N-(cyclopropylmethyl)-4,4,4-trifluoro-N-[[4-[5-(trifluoromethyl)-1,2,4-oxadiazol-3-yl]phenyl]methyl]-butanamide] yielded an inhibition of growth at 20 ppm of no less than 80%. In the case of CON(Cc1ccc(-c2noc(C(F)(F)F)n2)cc1)C(=O)CCc1ccc(Cl)cc1 [Compound 1.18, 3-(4-chlorophenyl)-N-methoxy-N-[[4-[5-(trifluoromethyl)-1,2,4-oxadiazol-3-yl]phenyl]methyl]-propanamide], the inhibition of growth at 20 ppm is reported as no less than 80%. CON(Cc1ccc(-c2noc(C(F)(F)F)n2)cc1)C(=O)OCCCCCl [Compound 2.13, 4-chlorobutyl N-methoxy-N-[[4-[5-(trifluoromethyl)-1,2,4-oxadiazol-3-yl]phenyl]methyl]-carbamate] was tested, and the inhibition of growth at 20 ppm was no less than 80%. For CC1(C(=O)N(Cc2ccc(-c3noc(C(F)(F)F)n3)cc2)OCc2ccc(Cl)cc2)COC1 [Compound 1.556, N-[(4-chlorophenyl)-methoxy]-3-methyl-N-[[4-[5-(trifluoromethyl)-1,2,4-oxadiazol-3-yl]phenyl]methyl]-oxetane-3-carboxamide], the inhibition of growth at 20 ppm was no less than 80%. With CCC(C)N(Cc1ccc(-c2noc(C(F)(F)F)n2)cc1)C(=O)C1CCC1 (centres unmarked) [Compound 1.381, N-sec-butyl-N-[[4-[5-(trifluoromethyl)-1,2,4-oxadiazol-3-yl]phenyl]methyl]-cyclobutane-carboxamide] the inhibition of growth at 20 ppm was no less than 80%. O=C(C1CC1(Cl)Cl)N(Cc1ccc(-c2noc(C(F)(F)F)n2)cc1)CC1CC1 (centres unmarked) [Compound 1.232, 2.2-dichloro-N-(cyclopropylmethyl)-N-[[4-[5-(trifluoromethyl)-1,2,4-oxadiazol-3-yl]phenyl]methyl]-cyclopropane-carboxamide] gave an inhibition of growth at 20 ppm of no less than 80%. In the case of CCC(C)N(Cc1ccc(-c2noc(C(F)(F)F)n2)cc1)C(=O)C=CC(F)(F)F (centres unmarked) [Compound 1.382, 4,4,4-trifluoro-N-sec-butyl-N-[[4-[5-(trifluoromethyl)-1,2,4-oxadiazol-3-yl]phenyl]methyl]but-2-enamide], the inhibition of growth at 20 ppm is reported as no less than 80%. With O=C(N(Cc1ccc(-c2noc(C(F)(F)F)n2)cc1)C1CC1)C1(c2ccccc2)CC1 [Compound 1.96, N-cyclopropyl-1-phenyl-N-[[4-[5-(trifluoromethyl)-1,2,4-oxadiazol-3-yl]phenyl]methyl]-cyclopropane-carboxamide] the inhibition of growth at 20 ppm was no less than 80%. COc1ccc(C2(C(=O)N(Cc3ccc(-c4noc(C(F)(F)F)n4)cc3)OC)CC2)cc1 [Compound 1.74, N-methoxy-1-(4-methoxyphenyl)-N-[[4-[5-(trifluoromethyl)-1,2,4-oxadiazol-3-yl]phenyl]methyl]-cyclopropane-carboxamide] was tested, and the inhibition of growth at 20 ppm was no less than 80%. CC1(C(=O)N(Cc2ccc(-c3noc(C(F)(F)F)n3)cc2)OCC=C(Cl)Cl)COC1 [Compound 1.544, N-(3,3-dichloroallyloxy)-3-methyl-N-[[4-[5-(trifluoromethyl)-1,2,4-oxadiazol-3-yl]phenyl]methyl]-oxetane-3-carboxamide] was tested, and the inhibition of growth at 20 ppm was no less than 80%. CCCCCOC(=O)N(Cc1ccc(-c2noc(C(F)(F)F)n2)cc1)OC [Compound 2.9, pentyl N-methoxy-N-[[4-[5-(trifluoromethyl)-1,2,4-oxadiazol-3-yl]phenyl]methyl]-carbamate] was tested, and the inhibition of growth at 20 ppm was no less than 80%. Compound CCCCON(Cc1ccc(-c2noc(C(F)(F)F)n2)cc1)C(=O)C1CCC1 [Compound 1.638, N-butoxy-N-[[4-[5-(trifluoromethyl)-1,2,4-oxadiazol-3-yl]phenyl]methyl]-cyclobutane-carboxamide] has an inhibition of growth at 20 ppm of no less than 80%. With CCCON(Cc1ccc(-c2noc(C(F)(F)F)n2)cc1)C(=O)CC(F)(F)F [Compound 1.318, 3,3,3-trifluoro-N-propoxy-N-[[4-[5-(trifluoromethyl)-1,2,4-oxadiazol-3-yl]phenyl]methyl]-propanamide] the inhibition of growth at 20 ppm was no less than 80%. In the case of CCCCON(Cc1ccc(-c2noc(C(F)(F)F)n2)cc1)C(=O)CC [Compound 1.588, N-butoxy-N-[[4-[5-(trifluoromethyl)-1,2,4-oxadiazol-3-yl]phenyl]methyl]-propanamide], the inhibition of growth at 20 ppm is reported as no less than 80%. In the case of CCCCC(=O)N(Cc1ccc(-c2noc(C(F)(F)F)n2)cc1)OCCC [Compound 1.322, N-propoxy-N-[[4-[5-(trifluoromethyl)-1,2,4-oxadiazol-3-yl]phenyl]methyl]-pentanamide], the inhibition of growth at 20 ppm is reported as no less than 80%.
